{"source": "patent US9422240B2", "about": "“Partially saturated nitrogen-containing heterocyclic compound” (TAISHO PHARMACEUTICAL CO., LTD, priority 2012, dated 2016)", "key": {"human PHD2 [1]": {"molecular_target": "T1, human PHD2 (Homo sapiens (Human), UniProt Q9GZT9)", "T1 sequence (Q9GZT9 whole entry)": "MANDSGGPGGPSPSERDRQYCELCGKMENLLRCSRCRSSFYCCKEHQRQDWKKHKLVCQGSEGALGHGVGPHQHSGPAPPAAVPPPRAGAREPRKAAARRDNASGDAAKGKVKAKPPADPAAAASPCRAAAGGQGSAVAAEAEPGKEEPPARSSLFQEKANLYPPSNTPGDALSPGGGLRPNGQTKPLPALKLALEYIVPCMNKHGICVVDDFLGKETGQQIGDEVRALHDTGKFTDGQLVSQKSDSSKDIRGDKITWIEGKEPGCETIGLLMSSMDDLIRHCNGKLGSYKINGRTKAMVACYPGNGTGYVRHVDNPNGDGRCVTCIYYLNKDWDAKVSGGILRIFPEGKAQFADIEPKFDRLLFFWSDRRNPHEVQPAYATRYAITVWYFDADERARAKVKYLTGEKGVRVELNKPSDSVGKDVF", "test": "Test 1: human PHD2 inhibitory activity, [14C]-2-oxoglutarate to [14C]-succinic acid radiometric assay with HIF-1α peptide", "assay_type": "biochemical", "conditions": "test compound's concentration 1 μM; Test 1, [14C]-2-oxoglutarate radiometric assay; read-out: Percent inhibition (% at 1 μM)", "protocol": "(1) Expression and Preparation of Human PHD2\nHuman PHD2 was expressed in insect cells (HighFive cells). A registered sequence of human PHD2 (NM_022051) was introduced into the pFastBacl vector (Invitrogen), and the sequence was verified. The vector was introduced into Sf9 insect cells (Invitrogen) to acquire human PHD2 baculovirus. HighFive insect cells (Invitrogen) were infected with this recombinant virus and cultured at 27° C. for 72 hours; thereafter, a cell lysis solution containing various protease inhibitors was added and the cells were disrupted to form a suspension. The suspension of disrupted cells was centrifuged at 4° C. and 100,000×g for 30 minutes and the supernatant was recovered as a cell lysate.\n(2) Measurement of Human PHD2 Inhibitory Activity\nThe activity of human PHD2 enzyme was measured with a substrate which is a 19-residue partial peptide based on the sequence of HIF-1α. Specifically, the conversion of 2-oxoglutarate to succinic acid which would occur simultaneously with the hydroxylation of a proline residue in the peptide with the PHD2 enzyme was utilized. To be more specific, [^14C]-2-oxogiutarate was added to the reaction system to initiate an enzymatic reaction and the [^14C]-2-oxoglutarate remaining after the reaction was bound to 2,4-dinitrophenylhydrazine (DNPH), with the resulting precipitate being removed by passage through a filter. Subsequently, radiation counting was conducted on the resulting [^14C]-succinic acid.\nA test compound, HIF-1αpeptide and [^14C]-2-oxoglutarate were preliminarily added onto 96-well plates and reaction was initiated by adding a human PHD2 enzyme solution (4 μg/well). After 15-min incubation at 37° C., a DNPH-containing quench solution was added and the mixture was allowed to stand at room temperature for 30 minutes. Thereafter, an excess of non-radiolabelled 2-oxoglutarate was added and the mixture was allowed to stand at room temperature for 60 minutes. The resulting precipitate was removed by passage through a filter and the radiation count on the [^14C]-succinic acid was quantified (with MicroBeta). Radiation counting was conducted for each well and the human PHD2 inhibitory activity of each test compound was calculated on the basis of the values for the substrate-free group and the test compound-free group."}, "human PHD2 [2]": {"molecular_target": "T1, human PHD2", "test": "Test 2: human PHD2 inhibitory activity, fluorescence polarization assay of HIF-1α peptide proline hydroxylation", "assay_type": "biochemical", "conditions": "for inhibition at 1 µM: test compound's concentration 1 μM, Test 2, fluorescence polarization assay, read-out: Percent inhibition (% at 1 μM)", "outline": "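A 19-mer HIF-1α peptide served as substrate, with the reaction started by 40 ng/well human PHD2 (cell lysate of NM_022051-transfected cells) and run 20 min at 30° C. before EDTA stop. Hydroxylated product bound anti-HIF-OH antibody, read by fluorescence polarization versus no-compound control.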"}}}
{"compound": "O=C(O)CNC(=O)C1=C(O)CC2(CCCCC2)N(Cc2ccc(C(F)(F)F)cc2)C1=O", "note": "[Ex. 1-63]", "values": [{"measurement": "inhibition at 1 µM", "setting": "human PHD2 [1]", "result": 43, "unit": "%"}, {"measurement": "inhibition at 1 µM", "setting": "human PHD2 [2]", "result": 69, "unit": "%"}]}
{"compound": "O=C(O)CNC(=O)C1=C(O)C2(CCOCC2)CN(Cc2ccc(C(F)(F)F)cc2)C1=O", "note": "[Ex. 1-64]", "values": [{"measurement": "inhibition at 1 µM", "setting": "human PHD2 [1]", "result": 80, "unit": "%"}, {"measurement": "inhibition at 1 µM", "setting": "human PHD2 [2]", "result": 81, "unit": "%"}]}
{"compound": "CSc1ccc(CN2CCC(O)=C(C(=O)NCC(=O)O)C2=O)cc1", "note": "[Ex. 1-65]", "values": [{"measurement": "inhibition at 1 µM", "setting": "human PHD2 [1]", "result": 84, "unit": "%"}, {"measurement": "inhibition at 1 µM", "setting": "human PHD2 [2]", "result": 85, "unit": "%"}]}
{"compound": "O=C(O)CNC(=O)C1=C(O)CCN(Cc2cccc(Cl)c2)C1=O", "note": "[Ex. 1-66]", "values": [{"measurement": "inhibition at 1 µM", "setting": "human PHD2 [1]", "result": 80, "unit": "%"}, {"measurement": "inhibition at 1 µM", "setting": "human PHD2 [2]", "result": 77, "unit": "%"}]}
{"compound": "O=C(O)CNC(=O)C1=C(O)CCN(Cc2ccc(Cl)c(Cl)c2)C1=O", "note": "[Ex. 1-67]", "values": [{"measurement": "inhibition at 1 µM", "setting": "human PHD2 [1]", "result": 84, "unit": "%"}, {"measurement": "inhibition at 1 µM", "setting": "human PHD2 [2]", "result": 89, "unit": "%"}]}
{"compound": "O=C(O)CNC(=O)C1=C(O)CCN(Cc2cccc(OC(F)(F)F)c2)C1=O", "note": "[Ex. 1-68]", "values": [{"measurement": "inhibition at 1 µM", "setting": "human PHD2 [1]", "result": 67, "unit": "%"}, {"measurement": "inhibition at 1 µM", "setting": "human PHD2 [2]", "result": 66, "unit": "%"}]}
{"compound": "CCOc1ccc(CN2CCC(O)=C(C(=O)NCC(=O)O)C2=O)cc1", "note": "[Ex. 1-71]", "values": [{"measurement": "inhibition at 1 µM", "setting": "human PHD2 [1]", "result": 81, "unit": "%"}, {"measurement": "inhibition at 1 µM", "setting": "human PHD2 [2]", "result": 85, "unit": "%"}]}
{"compound": "O=C(O)CNC(=O)C1=C(O)CCN(Cc2ccc(Oc3ccccc3)nc2)C1=O", "note": "[Ex. 1-72]", "values": [{"measurement": "inhibition at 1 µM", "setting": "human PHD2 [1]", "result": 98, "unit": "%"}, {"measurement": "IC50", "setting": "human PHD2 [2]; human PHD2, fluorescence polarization assay, 20-min incubation at 30° C.", "result": 94, "unit": "nM"}, {"measurement": "inhibition at 1 µM", "setting": "human PHD2 [2]", "result": 89, "unit": "%"}]}
{"compound": "O=C(O)CNC(=O)C1=C(O)CCN(Cc2ccc(-c3ccccc3)nc2)C1=O", "note": "[Ex. 1-73]", "values": [{"measurement": "inhibition at 1 µM", "setting": "human PHD2 [1]", "result": 99, "unit": "%"}, {"measurement": "inhibition at 1 µM", "setting": "human PHD2 [2]", "result": 90, "unit": "%"}]}
{"compound": "O=C(O)CNC(=O)C1=C(O)CCN(Cc2ccc(Cl)c(C(F)(F)F)c2)C1=O", "note": "[Ex. 1-74]", "values": [{"measurement": "inhibition at 1 µM", "setting": "human PHD2 [1]", "result": 80, "unit": "%"}, {"measurement": "inhibition at 1 µM", "setting": "human PHD2 [2]", "result": 86, "unit": "%"}]}
{"compound": "O=C(O)CNC(=O)C1=C(O)CC(Cc2ccccc2)N(Cc2ccc(-c3ccccc3)cc2)C1=O", "note": "(centres unmarked) [Ex. 1-75]", "values": [{"measurement": "inhibition at 1 µM", "setting": "human PHD2 [1]", "result": 54, "unit": "%"}, {"measurement": "inhibition at 1 µM", "setting": "human PHD2 [2]", "result": 84, "unit": "%"}]}
{"compound": "O=C(O)CNC(=O)C1=C(O)CC(CCc2ccccc2)N(Cc2ccc(-c3ccccc3)cc2)C1=O", "note": "(centres unmarked) [Ex. 1-76]", "values": [{"measurement": "inhibition at 1 µM", "setting": "human PHD2 [1]", "result": 40, "unit": "%"}, {"measurement": "inhibition at 1 µM", "setting": "human PHD2 [2]", "result": 79, "unit": "%"}]}
{"compound": "CC1CC(O)=C(C(=O)NCC(=O)O)C(=O)N1Cc1ccc(-c2ccccn2)cc1", "note": "(centres unmarked) [Ex. 1-77]", "values": [{"measurement": "inhibition at 1 µM", "setting": "human PHD2 [1]", "result": 74, "unit": "%"}, {"measurement": "inhibition at 1 µM", "setting": "human PHD2 [2]", "result": 85, "unit": "%"}]}
{"compound": "CC1CC(O)=C(C(=O)NCC(=O)O)C(=O)N1Cc1ccc(C(F)(F)F)cc1", "note": "(centres unmarked) [Ex. 1-78]", "values": [{"measurement": "inhibition at 1 µM", "setting": "human PHD2 [1]", "result": 70, "unit": "%"}, {"measurement": "inhibition at 1 µM", "setting": "human PHD2 [2]", "result": 78, "unit": "%"}]}
{"compound": "Cc1ccc(CN2C(=O)C(C(=O)NCC(=O)O)=C(O)CC2C)cc1", "note": "(centres unmarked) [Ex. 1-79]", "values": [{"measurement": "inhibition at 1 µM", "setting": "human PHD2 [1]", "result": 64, "unit": "%"}, {"measurement": "inhibition at 1 µM", "setting": "human PHD2 [2]", "result": 71, "unit": "%"}]}
{"compound": "CC1CC(O)=C(C(=O)NCC(=O)O)C(=O)N1CC1CCC(c2ccccc2)CC1", "note": "(centres unmarked) [Ex. 1-80]", "values": [{"measurement": "inhibition at 1 µM", "setting": "human PHD2 [1]", "result": 76, "unit": "%"}, {"measurement": "inhibition at 1 µM", "setting": "human PHD2 [2]", "result": 88, "unit": "%"}]}
{"compound": "O=C(O)CNC(=O)C1=C(O)CC(C(F)(F)F)N(Cc2ccc(-c3ccccc3)cc2)C1=O", "note": "(centres unmarked) [Ex. 1-81]", "values": [{"measurement": "inhibition at 1 µM", "setting": "human PHD2 [1]", "result": 72, "unit": "%"}, {"measurement": "inhibition at 1 µM", "setting": "human PHD2 [2]", "result": 64, "unit": "%"}]}
{"compound": "O=C(O)CNC(=O)C1=C(O)C2(CCCCC2)CN(Cc2ccc(C(F)(F)F)cc2)C1=O", "note": "[Ex. 1-82]", "values": [{"measurement": "inhibition at 1 µM", "setting": "human PHD2 [1]", "result": 51, "unit": "%"}, {"measurement": "inhibition at 1 µM", "setting": "human PHD2 [2]", "result": 77, "unit": "%"}]}
{"compound": "O=C(O)CNC(=O)C1=C(O)C2(CCC2)CN(Cc2ccc(C(F)(F)F)cc2)C1=O", "note": "[Ex. 1-83]", "values": [{"measurement": "inhibition at 1 µM", "setting": "human PHD2 [1]", "result": 54, "unit": "%"}, {"measurement": "inhibition at 1 µM", "setting": "human PHD2 [2]", "result": 73, "unit": "%"}]}
{"compound": "Cc1ccc(CN2C(=O)C(C(=O)NCC(=O)O)=C(O)CC23CCCCC3)cc1", "note": "[Ex. 1-84]", "values": [{"measurement": "inhibition at 1 µM", "setting": "human PHD2 [1]", "result": 42, "unit": "%"}, {"measurement": "inhibition at 1 µM", "setting": "human PHD2 [2]", "result": 67, "unit": "%"}]}
{"compound": "CC1(C)CC(O)=C(C(=O)NCC(=O)O)C(=O)N1Cc1ccc(C(F)(F)F)cc1", "note": "[Ex. 1-85]", "values": [{"measurement": "inhibition at 1 µM", "setting": "human PHD2 [1]", "result": 61, "unit": "%"}, {"measurement": "inhibition at 1 µM", "setting": "human PHD2 [2]", "result": 65, "unit": "%"}]}
{"compound": "Cc1ccc(CN2CC3(CCCCC3)C(O)=C(C(=O)NCC(=O)O)C2=O)cc1", "note": "[Ex. 1-86]", "values": [{"measurement": "inhibition at 1 µM", "setting": "human PHD2 [1]", "result": 48, "unit": "%"}, {"measurement": "inhibition at 1 µM", "setting": "human PHD2 [2]", "result": 71, "unit": "%"}]}
{"compound": "CC(C)(C)c1ccc(-c2ccc(CN3C(=O)C(C(=O)NCC(=O)O)=C(O)CC34CCOCC4)cc2)cc1", "note": "[Ex. 1-87]", "values": [{"measurement": "inhibition at 1 µM", "setting": "human PHD2 [1]", "result": 46, "unit": "%"}, {"measurement": "inhibition at 1 µM", "setting": "human PHD2 [2]", "result": 86, "unit": "%"}]}
{"compound": "Cc1ccc(CN2C(=O)C(C(=O)NCC(=O)O)=C(O)CC2(C)C)cc1", "note": "[Ex. 1-88]", "values": [{"measurement": "inhibition at 1 µM", "setting": "human PHD2 [1]", "result": 44, "unit": "%"}, {"measurement": "inhibition at 1 µM", "setting": "human PHD2 [2]", "result": 55, "unit": "%"}]}
{"compound": "Cc1ccc(CN2CC3(CCOCC3)C(O)=C(C(=O)NCC(=O)O)C2=O)cc1", "note": "[Ex. 1-89]", "values": [{"measurement": "inhibition at 1 µM", "setting": "human PHD2 [1]", "result": 69, "unit": "%"}, {"measurement": "inhibition at 1 µM", "setting": "human PHD2 [2]", "result": 72, "unit": "%"}]}
{"compound": "Cc1ccc(CN2CC3(CCC3)C(O)=C(C(=O)NCC(=O)O)C2=O)cc1", "note": "[Ex. 1-90]", "values": [{"measurement": "inhibition at 1 µM", "setting": "human PHD2 [1]", "result": 58, "unit": "%"}, {"measurement": "inhibition at 1 µM", "setting": "human PHD2 [2]", "result": 63, "unit": "%"}]}
